Laboratory results reported in article PMC6017400, “Investigation into Improving the Aqueous Solubility of the Thieno[2,3-b]pyridine Anti-Proliferative Agents” (Molecules : A Journal of Synthetic Chemistry and Natural …, 2018).
≈ marks a conversion by molar mass, not a printed value. Where “and” joins values, the source holds several entries; their conditions need not be identical. Equal entries are not always repeated. Where two headings read alike, the source gives them in different places.

Key:
[1] = Aqueous thermodynamic solubility by HPLC; type: physicochemical; conditions: for solubility thermodynamic at 15 min / solubility at 15 min: thermodynamic from solid; for solubility thermodynamic at 15 min / Experimental S / solubility at 15 min: water; for solubility thermodynamic at 15 min: read-out: Experimental S
Description: The aqueous thermodynamic solubility of derivatives 1–7 were measured using a standard HPLC (High Performance Liquid Chromatography) procedure. Solubility is defined as the amount of substance that passes into solution in order to establish the equilibrium at constant temperature and pressure and, thus, produce a saturated solution. The water solubility (log S) and log P were calculated for comparison.
Intrinsic aqueous drug solubility was determined by forming a supersaturated solution of the drug compound in water. The suspension was sonicated for 15 min and centrifuged at 13,000 rpm for 6 min. After 15 min the supernatant was decanted and the total drug content solubilised was analysed using reverse phase HPLC. The solution was analysed using an Agilent 1260 Infinity/DAD (100–900 nm) (Waldbronn, Germany) with a Zorbax eclipse XDB ([…], 4.6 mm × 150 mm) (Waldbronn, Germany) column. The mobile phase comprised of 80:20 acetonitrile: H2O containing 45 mM ammonium formate buffered to pH 3.5 with formic acid. Flow rate was 1 mL/min with 5 μL injection volume.

[2] = Drug loading into Ch5 polymer (UV-VIS); type: physicochemical; conditions: 6 mg/mL, 10:1 feed ratio
Description: The maximum compound solubilisation observed was 6 mg/mL at a 10:1 ratio, with 0.59 mg/mL drug encapsulation being achieved.
Polymer solutions of 1 mg/mL, 3 mg/mL, and 6 mg/mL were made up in deionised water and probe sonicated for 10 min to ensure aggregation of the self-assemblies was achieved. Compound 2 was added in 1:1, 5:1, and 10:1 initial drug: excipient weight ratios and the drug-polymer solutions were probe sonicated for a further 10 min to ensure maximum encapsulation was achieved. After cooling to room temperature, the solutions were filtered using 0.45 µm syringe filters (with prefilters) to ensure any excess un-encapsulated drugs were removed. Drug quantification was carried out using UV-VIS spectroscopy with the samples diluted in DMSO. Absorbance was measured at 304 nm. Calibration was run from 0.0039–0.0313 mg/mL with R^2 = 0.992 (see Supplementary Materials Figure S3 for the calibration plot).

[3] = In vitro drug release from polymer into PBS; type: physicochemical; conditions: 37 °C
Description: The formulation (1 mL) was pipetted inside dialysis tubing (MW cut off = 12–14 kDa) and dialysed against PBS in sink (100 mL, 0.2 M) at 37 °C with stirring. At various time points 1 mL of the external PBS was extracted and replaced with 1 mL of fresh PBS. The presence of drug in the collected PBS was determined using UV-VIS spectroscopy as before.

[4] = tested on: human pancreatic adenocarcinoma (BxPC-3) cells; assay: MTT cytotoxicity assay; type: cell-based
Description: Finally the viability was measured with the MTT assay in human pancreatic adenocarcinoma (BxPC-3) cells using 2 with and without the polymer encapsulation; the results are shown in Figure 6.
An MTT assay was carried out using human pancreatic adenocarcinoma (BxPC-3) cells. Cells were cultured in RPMI medium containing 10% FBS and 1% penicillin streptomycin (Penstrep). […] The experiments were performed in triplicate (n = 3) using eight wells per plate for each data point. […] Polymeric self-assemblies were formed by probe sonicating the polymers in sterile water (5 mg/mL). The polymer stock solutions were diluted to 0.005 mg/mL with media. A drug stock solution (20 mg/mL) was prepared by diluting compound 2 in DMSO. The formulations were prepared by addition of compound 2 into 0.005 mg/mL polymer solution.

[5] = tested on: MDA-MB-231 (breast) human tumour cell line; set-up: method as in PMID 26966420; conditions: read-out: IC50, thymidine uptake assay; cited from earlier work
MDA-MB-231 = tested on: MDA-MB-231; set-up: method as in PMID 22698703, doi:10.1039/c3md00320e, PMID 26966420; conditions: cited from earlier work
HCT116 = tested on: HCT116; set-up: method as in PMID 22698703, doi:10.1039/c3md00320e, PMID 26966420; conditions: cited from earlier work
[6] = tested on: HCT116 (colon) human tumour cell line; assay: Thymidine uptake cell proliferation assay; type: cell-based; conditions: 1 μM, untreated cells = 100% growth
Description: (§1) Thymidine uptake was used for viability testing on the MDA-MB-231 (breast) and HCT116 (colon) human tumour cell lines. This measurement reflects the anti-proliferative/cytotoxic effects of the compounds. A concentration of 1 μM was used. […] To corroborate these findings, derivatives 3, 4, and 6 were tested against the National Cancer Institute’s human tumour cell line panel (NCI60). […] The leukaemia cell lines K-562 (45.5% growth) and SR (47.7% growth) were the most affected followed by the melanoma MDA-MB-435 (53.9% growth) cell line. This is an interesting observation since the thieno[2,3-b]pyridines are often active against leukaemia cells and the MDA-MB-435 cell line, in particular.
(§2) As described in detail previously cell proliferation was measured using a thymidine incorporation assay by seeding 3000 cells in each well using 96-well plates with varying concentrations of inhibitors for three days. Experiments were performed in triplicate with a minimum of two experimental repeats. Briefly, 0.04 µCi of ^3H-thymidine was added to each well and incubated for five hours, after which the cells were gathered onto glass fibre filters using an automated TomTec harvester. Filters were incubated with Betaplate Scint and thymidine incorporation determined with Trilux/Betaplate counter showing the percentage of cells incorporated with ^3H-thymidine into the DNA helix.

[7] = tested on: MDA-MB-231 (breast) human tumour cell line; assay: Thymidine uptake cell proliferation assay; type: cell-based; conditions: 1 μM, untreated cells = 100% growth
Description: as §1, §2

[8] = tested on: NCI60 human tumour cell line panel; assay: NCI60 human tumour cell line panel growth inhibition (SRB); type: cell-based
Description: as §1
(§3) Furthermore, derivatives 3, 4, and 6 were sent to the National Cancer Institute’s Developmental Therapeutic Program (DTP) where they were screened against a panel of sixty human tumour cell lines (NCI60, for further information see [18, 29, 30] and a complete description in the Supplementary Materials section).
(§4) Figure S3. Compound 2 UV-vis calibration in DMSO at 304 nm.
(§5) NCI's 60-cell line panel growth inhibition assay
The NCI's human 60-cell lines were grown in RPMI 1640 medium containing 5% FBS and 2mM L-glutamine. Cells were inoculated into 96-well plates at plating densities 5000–40 000 cells per well, based on the doubling time of individual cell lines. Plates were then incubated at 37 °C, 5% CO2, 95% air and 100% relative humidity for 24 h prior to addition of tested compounds. After 24 h, two plates of each cell line were fixed in situ with trichloroacetic acid (TCA), to represent a measurement of the cell population for each cell line at the time of tested compound addition. Tested compounds were solubilized in DMSO at a concentration 400 times that of the desired final maximum test concentration and stored frozen prior to use. An aliquot of each frozen tested concentrate was thawed and diluted to twice the desired final maximum test concentration with complete medium containing 50 μg mL-1 gentamicin. 100 μL aliquot of the tested drug diluted solution was added to appropriate wells containing 100 μL of medium, resulting in the required final drug doses. Following tested compound addition, plates were incubated for additional 48 h. The assay was terminated by the addition of cold TCA for adherent cells. Cells were fixed in situ by addition of 50 μL of cold 50% (w/v) TCA (final concentration, 10% TCA) and incubated for 60 min at 4 °C. The supernatant was discarded, and plates were washed 5 times with water and air dried. Sulforhodamine B (SRB) solution (100 μL), 0.4%(w/v) in 1% acetic acid was added to each well, and plates were incubated for 10 min at rt. […] The bound stain was subsequently solubilized with 10 mM Trizma base, and the absorbance was measured on a plate reader at 515 nm. […]

[9] = tested on: leukaemia cell line K-562; assay: NCI60 panel growth inhibition (SRB); type: cell-based, human; conditions: K-562, NCI60
Description: as §1, §3, §4, §5
(§6) The NCI's human 60-cell lines were grown in RPMI 1640 medium containing 5% FBS and 2mM L-glutamine. Cells were inoculated into 96-well plates at plating densities 5000–40 000 cells per well, based on the doubling time of individual cell lines. Plates were then incubated at 37 °C, 5% CO2, 95% air and 100% relative humidity for 24 h prior to addition of tested compounds. After 24 h, two plates of each cell line were fixed in situ with trichloroacetic acid (TCA), to represent a measurement of the cell population for each cell line at the time of tested compound addition. Tested compounds were solubilized in DMSO at a concentration 400 times that of the desired final maximum test concentration and stored frozen prior to use. […] The bound stain was subsequently solubilized with 10 mM Trizma base, and the absorbance was measured on a plate reader at 515 nm. […]

leukaemia cell line SR = assay: NCI60 panel growth inhibition (SRB); type: cell-based, human
Description: as §1, §3, §4, §5, §6

[10] = tested on: melanoma MDA-MB-435 cell line; assay: NCI60 panel growth inhibition (SRB); type: cell-based, human; conditions: MDA-MB-435, NCI60
Description: as §1, §3, §4, §5, §6

[11] = HPLC, read-out: Experimental S, log S (converted)

| Structure (SMILES) | solubility thermodynamic at 15 min ([1]; HPLC) | solubility at 15 min [1, 11] | average relative growth, thymidine assay [6] | average relative growth, thymidine assay [7] | activity against NCI60 panel [8] | also measured |
| --- | --- | --- | --- | --- | --- | --- |
| Nc1c(C(=O)Nc2ccccc2)sc2nc3c(cc12)C(=O)CCC3 [Compound 1, 3-amino-5-oxo-N-phenyl-5,6,7,8-tetrahydrothieno[2,3-b]quinoline-2-carboxamide] | 1.21 µg/mL (≈ 3.59 µM) | 3.98 µM |  |  |  | Experimental S ([1]; HPLC): 1.2 µg/mL |
| Cc1c(Cl)cccc1NC(=O)c1sc2nc3c(cc2c1N)C(=O)CCC3 [Compound 2] | 3.53 µg/mL (≈ 9.15 µM) | 10 µM |  |  |  | drug encapsulation (maximum) in Ch5 polymer [2]: 0.59 mg/mL; time to plateau of release from the polymer ensemble into the aqueous phase [3]: ~ 40 min; IC50 ([4]; BXPC-3, 24 h exposure, read-out: IC50, BxPC-3 viability (MTT)): 2.5 µg/mL and 6.48 µM; viability at 12.95 µM ([4]; BxPC-3, 5 μg/mL (12.95 μM), read-out: cell viability (activity remaining)): ~30%; IC50 [5]: 164 nM; GI50 (MDA-MB-231): 141 nM; GI50 (HCT116): 67 nM |
| Nc1c(C(=O)Nc2ccccc2)n(CCCN2CCOCC2)c2nc3c(cc12)CCCC3 [Compound 3] |  | 3160 µM | 90.3% | 99.5% | very modest or no activity | solubility increase as compared to 1 [1]: three orders of a magnitude; water solubility [1]: 1300 µg/mL (≈ 3000 µM); Experimental S ([1]; HPLC): 1339.8 µg/mL and 1336.7 µg/mL; solubility at 15 min ([1]; read-out: water solubility): ~1300 µg/mL |
| Nc1c(C(=O)Nc2ccccc2)n(CCCc2ccccc2)c2nc3c(cc12)CCCC3 [Compound 4] | 0.2 µg/mL (≈ 0.471 µM) | 0.501 µM | 103.6% | 105.4% | very modest or no activity |  |
| Cn1c(C(=O)Nc2cccc3ccccc23)c(N)c2cc3c(nc21)CCCC3 [Compound 5] | 0.18 µg/mL (≈ 0.486 µM) | 0.501 µM | 102.1% | 97.2% |  |  |
| Cc1cccc(NC(=O)c2c(N)c3cc4c(nc3n2C)CCCC4)c1C [Compound 6] | 0.76 µg/mL (≈ 2.18 µM) | 2 µM | 104.2% | 106.0% | very modest or no activity | overall relative growth for the 60 cell lines ([8]; untreated cells = 100% growth): 77%; growth [9]: 45.5%; growth (leukaemia cell line SR): 47.7%; growth [10]: 53.9% |
| Cn1c(C(=O)Nc2ccccc2)c(N)c2cc3c(nc21)CCCCCC3 [Compound 7] | 0.61 µg/mL (≈ 1.75 µM) | 1.58 µM | 99.0% | 100.7% |  |  |
